Patent publication US20190085013A1, “NUCLEOTIDE AND NUCLEOSIDE THERAPEUTIC COMPOSITIONS AND USES RELATED THERETO” (EMORY UNIVERSITY, priority 2016, published 2019)

Key:
[1] = target: NS5B-621 from HCV GT-1b Con-1 (Hepatitis C virus genotype 1b, UniProt Q9WMX2); assay: NS5B RNA-dependent RNA polymerase inhibition assay; type: biochemical; settings: 1 μM NTP substrates including either [32P]-CTP or [32P]-UTP, columns not distinguished
Description: Compounds were assayed for inhibition of NS5B-621 from HCV GT-1b Con-1. Reactions included purified recombinant enzyme, 1 u/μL negative-strand HCV IRES RNA template, and 1 μM NTP substrates including either [^32P]-CTP or [^32P]-UTP. Assay plates were incubated at 27° C. for 1 hour before quench. [^32P] incorporation into macromolecular product was assessed by filter binding.

HCV Replicon 1b-Con1 = assay: HCV replicon GT-1b luciferase assay; type: cell-based; settings: Hepatitis C virus, GT1B, read-out: HCV Replicon 1b-Con1 EC50
Text: Cell Culture—The reporter cell line Huh-luc/neo-ET was obtained from Dr. Ralf Bartenschlager (Department of Molecular Virology, Hygiene Institute, University of Heidelberg, Germany) by ImQuest BioSciences through a specific licensing agreement. This cell line harbors the persistently replicating I389luc-ubi-neo/NS3-3′/ET replicon containing the firefly luciferase gene-ubiquitin-neomycin phosphotransferase fusion protein and EMCV IRES driven NS3-5B HCV coding sequences containing the ET tissue culture adaptive mutations (E1202G, Tl2081, and K1846T). A stock culture of the Huh-luc/neo-ET was expanded by culture in DMEM supplemented with I 0% FCS, 2 mM glutamine, penicillin ([…])/streptomycin (100 μg/mL) and I× nonessential amino acids plus 1 mg/mL G418. The cells were split 1:4 and cultured for two passages in the same media plus 250 μg/mL G418. […] 5% C02 then anti-HCV activity was measured by luciferase endpoint. […]
Measurement of Virus Replication-HCV replication from the replicon assay system was measured by luciferase activity using the britelite plus luminescence reporter gene kit according to the manufacturer's instructions (Perkin Elmer, Shelton, Conn.). […] The well contents were transferred to a white 96-well plate and luminescence was measured within 15 minutes using the Wallac 1450Microbeta Trilux liquid scintillation counter. […]

HCV Replicon 1a-H77 = assay: HCV replicon GT-1a luciferase assay; type: cell-based; settings: Hepatitis C virus, GT1A, GT-1a H77 replicon

IC50 ([1]; first IC50 column) [nM]	IC50 ([1]; second IC50 column) [nM]	SMILES	EC50 (HCV Replicon 1b-Con1) [nM]	EC50 (HCV Replicon 1a-H77) [nM]
1000	13400	O=c1ccn([C@@H]2O[C@H](COP(=O)(O)OP(=O)(O)OP(=O)(O)O)[C@@H](O)[C@]2(O)CF)c(=O)[nH]1 [DRIVE-0060]	–	–
–	–	CC(C)OC(=O)[C@H](C)N[P@](=O)(OC[C@H]1O[C@@H](n2ccc(=O)[nH]c2=O)[C@@](O)(CF)[C@@H]1O)Oc1ccccc1 [DRIVE-0087]	750	540
